Source: publication PMC7206119, “RIP1 inhibition blocks inflammatory diseases but not tumor growth or metastases” (Cell Death and Differentiation, 2019)

Assays:
Test in all cases: biochemical
Design in all cases: Thermo Fisher SelectScreen kinase panel: Z'-LYTE and Adapta activity, LanthaScreen binding
[1] = target: T1, Hyl (Homo sapiens, UniProt P42679)
T1 construct: gene MATK
Procedure, shortened: (§1)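 Single-concentration panel: 10 µM GNE684 in KINOMEscan scanMAX binding (468 kinases) and in a 221-kinase panel run as Z'-LYTE/Adapta activity or LanthaScreen binding assays.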

[2] = target: CSF1R (Homo sapiens, UniProt P07333)
Procedure, shortened: as §1

[3] = target: T2, Srm (Homo sapiens, UniProt Q9H3Y6)
T2 construct: gene SRMS
Procedure, shortened: as §1

[4] = target: T3, BRK (Homo sapiens, UniProt Q13882)
T3 construct: gene PTK6
Procedure, shortened: as §1

[5] = target: NEK6 (Homo sapiens, UniProt Q9HC98)
Procedure, shortened: as §1

[6] = target: T4, CK1_alpha1 (Homo sapiens, UniProt P48729)
T4 construct: gene CSNK1A1
Procedure, shortened: as §1

[7] = target: EGFR (Homo sapiens, UniProt P00533)
Procedure, shortened: as §1

[8] = target: ERBB2 (Homo sapiens, UniProt P04626)
Procedure, shortened: as §1

[9] = target: T5, PRK1 (Homo sapiens, UniProt Q16512)
T5 construct: gene PKN1
T5 sequence (Q16512 whole entry): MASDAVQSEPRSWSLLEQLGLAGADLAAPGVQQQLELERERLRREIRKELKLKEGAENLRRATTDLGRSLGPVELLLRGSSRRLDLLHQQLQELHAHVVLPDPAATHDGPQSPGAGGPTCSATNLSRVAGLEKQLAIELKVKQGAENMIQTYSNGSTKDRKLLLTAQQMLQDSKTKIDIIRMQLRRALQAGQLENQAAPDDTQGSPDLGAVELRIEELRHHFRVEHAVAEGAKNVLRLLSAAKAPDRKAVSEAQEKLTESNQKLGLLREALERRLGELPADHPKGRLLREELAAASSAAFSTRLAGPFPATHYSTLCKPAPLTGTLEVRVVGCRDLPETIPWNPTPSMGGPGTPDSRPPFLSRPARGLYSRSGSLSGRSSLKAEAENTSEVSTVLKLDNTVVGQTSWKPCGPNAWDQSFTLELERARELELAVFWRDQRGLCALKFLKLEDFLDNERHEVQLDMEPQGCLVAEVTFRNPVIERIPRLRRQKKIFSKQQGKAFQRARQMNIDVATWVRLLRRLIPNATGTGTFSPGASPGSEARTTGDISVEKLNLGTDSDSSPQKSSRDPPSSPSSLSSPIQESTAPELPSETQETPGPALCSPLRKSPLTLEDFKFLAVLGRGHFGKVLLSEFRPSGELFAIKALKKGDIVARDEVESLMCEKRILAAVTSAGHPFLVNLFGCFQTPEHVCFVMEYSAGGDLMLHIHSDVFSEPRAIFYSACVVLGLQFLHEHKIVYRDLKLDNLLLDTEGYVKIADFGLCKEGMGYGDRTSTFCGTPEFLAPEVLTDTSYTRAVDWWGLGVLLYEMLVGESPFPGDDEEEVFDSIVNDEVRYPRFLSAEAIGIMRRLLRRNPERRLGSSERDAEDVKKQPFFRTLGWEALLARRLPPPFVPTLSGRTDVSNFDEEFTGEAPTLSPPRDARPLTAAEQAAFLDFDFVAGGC
Procedure, shortened: as §1

[10] = target: T6, MST4 (Homo sapiens, UniProt Q9P289)
T6 construct: gene STK26
T6 sequence (Q9P289 whole entry): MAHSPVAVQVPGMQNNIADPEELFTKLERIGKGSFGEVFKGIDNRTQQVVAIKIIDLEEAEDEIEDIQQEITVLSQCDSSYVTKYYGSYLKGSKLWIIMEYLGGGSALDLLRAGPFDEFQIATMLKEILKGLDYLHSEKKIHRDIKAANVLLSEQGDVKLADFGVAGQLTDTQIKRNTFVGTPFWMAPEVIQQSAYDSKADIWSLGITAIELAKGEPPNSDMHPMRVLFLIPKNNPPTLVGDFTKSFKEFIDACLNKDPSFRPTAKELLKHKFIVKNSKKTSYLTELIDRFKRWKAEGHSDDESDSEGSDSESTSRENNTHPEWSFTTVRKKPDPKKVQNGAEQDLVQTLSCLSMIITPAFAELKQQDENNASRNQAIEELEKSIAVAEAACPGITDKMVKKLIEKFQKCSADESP
Procedure, shortened: as §1

[11] = target: RIPK2 (Homo sapiens, UniProt O43353)
Procedure, shortened: as §1

[12] = target: T7, PKC_theta (Homo sapiens, UniProt Q04759)
T7 construct: gene PRKCQ
Procedure, shortened: as §1

[13] = target: STK16 (Homo sapiens, UniProt O75716)
Procedure, shortened: as §1

[14] = target: BRAF (Homo sapiens, UniProt P15056)
BRAF, sequence (P15056 whole entry): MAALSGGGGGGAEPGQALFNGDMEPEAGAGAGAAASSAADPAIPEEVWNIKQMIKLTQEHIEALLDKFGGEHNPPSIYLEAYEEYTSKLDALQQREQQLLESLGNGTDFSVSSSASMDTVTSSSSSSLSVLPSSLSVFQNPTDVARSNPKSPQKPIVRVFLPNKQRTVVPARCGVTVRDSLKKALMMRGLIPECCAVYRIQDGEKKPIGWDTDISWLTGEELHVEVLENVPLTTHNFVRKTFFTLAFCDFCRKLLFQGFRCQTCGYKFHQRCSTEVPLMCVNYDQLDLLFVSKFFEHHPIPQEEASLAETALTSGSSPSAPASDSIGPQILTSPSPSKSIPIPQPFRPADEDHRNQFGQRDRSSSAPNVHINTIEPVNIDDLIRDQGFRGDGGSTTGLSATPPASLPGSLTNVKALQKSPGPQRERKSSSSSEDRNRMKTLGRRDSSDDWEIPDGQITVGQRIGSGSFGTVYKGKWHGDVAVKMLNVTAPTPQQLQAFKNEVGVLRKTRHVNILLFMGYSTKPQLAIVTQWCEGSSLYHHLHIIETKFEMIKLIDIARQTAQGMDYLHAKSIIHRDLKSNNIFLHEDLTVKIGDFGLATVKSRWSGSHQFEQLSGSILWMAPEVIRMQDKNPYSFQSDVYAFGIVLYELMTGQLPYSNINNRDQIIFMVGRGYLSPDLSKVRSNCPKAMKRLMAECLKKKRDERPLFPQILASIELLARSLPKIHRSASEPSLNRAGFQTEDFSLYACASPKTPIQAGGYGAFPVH
Procedure, shortened: as §1

[15] = target: WNK2 (Homo sapiens, UniProt Q9Y3S1)
Procedure, shortened: as §1

[16] = target: T8, GSK3_alpha (Homo sapiens, UniProt P49840)
T8 construct: gene GSK3A
T8 sequence (P49840 whole entry): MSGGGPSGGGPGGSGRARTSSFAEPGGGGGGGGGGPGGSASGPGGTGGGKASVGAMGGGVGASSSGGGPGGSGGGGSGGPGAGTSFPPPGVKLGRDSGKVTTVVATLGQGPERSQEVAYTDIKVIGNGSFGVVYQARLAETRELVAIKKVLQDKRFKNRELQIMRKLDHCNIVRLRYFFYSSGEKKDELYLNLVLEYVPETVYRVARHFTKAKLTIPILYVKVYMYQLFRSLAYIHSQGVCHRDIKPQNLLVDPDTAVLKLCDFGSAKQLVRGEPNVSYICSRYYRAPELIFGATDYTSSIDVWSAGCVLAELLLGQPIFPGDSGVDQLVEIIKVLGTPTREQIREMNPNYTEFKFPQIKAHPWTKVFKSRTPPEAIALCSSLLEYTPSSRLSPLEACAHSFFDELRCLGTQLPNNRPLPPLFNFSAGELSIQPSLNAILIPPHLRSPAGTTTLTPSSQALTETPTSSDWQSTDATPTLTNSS
Procedure, shortened: as §1

[17] = target: T9, MKK6 (Homo sapiens, UniProt P52564)
T9 construct: gene MAP2K6
T9 sequence (P52564 whole entry): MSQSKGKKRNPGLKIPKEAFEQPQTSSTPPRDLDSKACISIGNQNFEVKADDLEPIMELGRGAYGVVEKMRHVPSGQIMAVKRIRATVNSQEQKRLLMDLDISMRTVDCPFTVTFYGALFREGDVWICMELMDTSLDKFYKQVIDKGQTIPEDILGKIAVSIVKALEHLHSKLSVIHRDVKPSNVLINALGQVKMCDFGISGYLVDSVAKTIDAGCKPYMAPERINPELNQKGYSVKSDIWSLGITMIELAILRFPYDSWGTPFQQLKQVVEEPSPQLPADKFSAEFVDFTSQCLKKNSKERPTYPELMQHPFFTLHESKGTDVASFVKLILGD
Procedure, shortened: as §1

[18] = target: T10, CK1_epsilon1 (Homo sapiens, UniProt P49674)
T10 construct: gene CSNK1E
Procedure, shortened: as §1

[19] = target: MAP4K4 (Homo sapiens, UniProt O95819)
MAP4K4, sequence (O95819 whole entry): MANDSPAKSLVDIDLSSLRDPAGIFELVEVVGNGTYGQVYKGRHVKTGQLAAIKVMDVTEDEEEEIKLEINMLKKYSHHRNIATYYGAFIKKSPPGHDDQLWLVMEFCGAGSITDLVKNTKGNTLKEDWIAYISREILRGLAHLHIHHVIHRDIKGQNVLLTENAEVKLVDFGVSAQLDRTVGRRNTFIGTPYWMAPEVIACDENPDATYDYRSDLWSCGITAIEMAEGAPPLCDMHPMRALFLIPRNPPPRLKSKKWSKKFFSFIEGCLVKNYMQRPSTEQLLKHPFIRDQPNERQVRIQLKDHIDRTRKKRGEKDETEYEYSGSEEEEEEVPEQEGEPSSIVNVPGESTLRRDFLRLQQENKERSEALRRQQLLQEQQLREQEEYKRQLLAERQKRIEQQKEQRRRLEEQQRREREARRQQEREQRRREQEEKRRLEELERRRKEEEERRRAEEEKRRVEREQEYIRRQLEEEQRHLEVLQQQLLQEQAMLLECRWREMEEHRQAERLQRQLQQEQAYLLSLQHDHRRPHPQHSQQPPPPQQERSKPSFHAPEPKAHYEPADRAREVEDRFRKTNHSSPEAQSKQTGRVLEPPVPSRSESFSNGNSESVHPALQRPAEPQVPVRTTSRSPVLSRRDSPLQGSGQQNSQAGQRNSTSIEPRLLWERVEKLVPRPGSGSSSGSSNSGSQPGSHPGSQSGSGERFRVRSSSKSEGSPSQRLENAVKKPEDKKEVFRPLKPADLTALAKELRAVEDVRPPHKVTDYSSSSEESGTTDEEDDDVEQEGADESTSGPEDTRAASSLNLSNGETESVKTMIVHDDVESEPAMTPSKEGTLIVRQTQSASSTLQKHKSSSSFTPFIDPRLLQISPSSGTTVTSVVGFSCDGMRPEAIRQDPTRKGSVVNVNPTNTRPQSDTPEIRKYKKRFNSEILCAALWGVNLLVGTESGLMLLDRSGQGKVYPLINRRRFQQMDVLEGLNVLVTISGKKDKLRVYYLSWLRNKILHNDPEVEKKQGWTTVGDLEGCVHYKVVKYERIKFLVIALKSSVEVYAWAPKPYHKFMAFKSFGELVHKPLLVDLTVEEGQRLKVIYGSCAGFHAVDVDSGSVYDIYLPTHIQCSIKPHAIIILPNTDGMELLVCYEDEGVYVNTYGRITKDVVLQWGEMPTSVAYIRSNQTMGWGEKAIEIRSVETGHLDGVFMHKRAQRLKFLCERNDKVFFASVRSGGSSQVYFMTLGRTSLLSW
Procedure, shortened: as §1

[20] = target: T11, PKA (Homo sapiens, UniProt P17612)
T11 construct: gene PRKACA
Procedure, shortened: as §1

[21] = target: SIK2 (Homo sapiens, UniProt Q9H0K1)
Procedure, shortened: as §1

[22] = target: T12, IRR (Homo sapiens, UniProt P14616)
T12 construct: gene INSRR
Procedure, shortened: as §1

[23] = target: T13, RSK1 (Homo sapiens, UniProt Q15418)
T13 construct: gene RPS6KA1
T13 sequence (Q15418 whole entry): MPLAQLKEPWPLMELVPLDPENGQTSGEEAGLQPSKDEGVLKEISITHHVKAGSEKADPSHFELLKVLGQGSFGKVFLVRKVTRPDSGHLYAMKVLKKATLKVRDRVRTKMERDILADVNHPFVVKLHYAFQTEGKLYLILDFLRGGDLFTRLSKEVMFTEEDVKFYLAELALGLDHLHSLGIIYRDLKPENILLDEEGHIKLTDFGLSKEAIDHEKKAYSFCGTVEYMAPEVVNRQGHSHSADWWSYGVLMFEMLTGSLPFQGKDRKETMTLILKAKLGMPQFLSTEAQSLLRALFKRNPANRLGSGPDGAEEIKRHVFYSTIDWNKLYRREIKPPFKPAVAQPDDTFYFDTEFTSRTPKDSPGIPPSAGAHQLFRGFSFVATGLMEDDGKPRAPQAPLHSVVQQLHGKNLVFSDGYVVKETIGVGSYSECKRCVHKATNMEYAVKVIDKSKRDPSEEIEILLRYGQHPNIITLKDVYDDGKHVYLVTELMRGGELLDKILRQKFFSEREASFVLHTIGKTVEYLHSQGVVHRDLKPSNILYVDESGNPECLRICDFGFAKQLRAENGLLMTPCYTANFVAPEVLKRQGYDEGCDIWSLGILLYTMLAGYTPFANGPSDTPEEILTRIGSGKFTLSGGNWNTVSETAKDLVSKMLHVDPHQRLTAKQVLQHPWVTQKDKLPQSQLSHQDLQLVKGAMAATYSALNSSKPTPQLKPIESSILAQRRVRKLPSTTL
Procedure, shortened: as §1

COc1cc2c(cn1)N(C)C(=O)[C@@H](NC(=O)c1nc3n(n1)[C@H](c1ccccc1)CC3)CC2 [GNE684, (S)-N-((S)-7-methoxy-1-methyl-2-oxo-2,3,4,5-tetrahydro-1H-pyrido[3,4-b]azepin-3-yl)-5-phenyl-6,7-dihydro-5H-pyrrolo[1,2-b][1,2,4]triazole-2-carboxamide]
inhibition at 10 µM [1]: 1%
inhibition at 10 µM [2]: 2%
inhibition at 10 µM [3]: 9%
inhibition at 10 µM [4]: -1%
inhibition at 10 µM [5]: -2%
inhibition at 10 µM [6]: 3%
inhibition at 10 µM [7]: 2.5%
inhibition at 10 µM [8]: -5.5%
inhibition at 10 µM [9]: 2.5%
inhibition at 10 µM [10]: 3.5%
inhibition at 10 µM [11]: 2%
inhibition at 10 µM [12]: -5%
inhibition at 10 µM [13]: -2%
inhibition at 10 µM [14]: 6.5%
inhibition at 10 µM [15]: -8.5%
inhibition at 10 µM [16]: 5%
inhibition at 10 µM [17]: -4.5%
inhibition at 10 µM [18]: 5%
inhibition at 10 µM [19]: 11.5%
inhibition at 10 µM [20]: 1%
inhibition at 10 µM [21]: 8.5%
inhibition at 10 µM [22]: 12%
inhibition at 10 µM [23]: 4.5%
